The assay has as its system A375 melanoma cells (B-Raf V600E mutation). Briefly: A375 (A375_P-ERK) cell activity / cell growth inhibition assay. Type of assay: cell-based, human. Conditions: Homo sapiens, A-375; A375 cells (text: A375_P-ERK). As to the method:
Compounds are assessed in a variety of cell based assays. For example human cell lines with B-RafV600E mutation (A375 melanoma, SKMEL3 melanoma, and COLO205 colon adenocarcinoma), as well as tumorigenic cell lines with wild-type B-RAF (SW620 colon adenocarcinoma) or with Ras mutations (SKMEL2 melanoma and IPC298 melanoma).
On day 1, cells are counted, then centrifuged in a conical tube for 5 minutes at 1000 rpm.
On day 2, compound at a maximum concentration of 5 mM is serially diluted 1:3 (e.g. 10 μL with 30 μL dimethyl sulfoxide) for a total of 8 point titration with DMSO as a control. A 1 μL aliquot of each dilution point and control is added to 249 μL growth media and 50 μL is added to a well containing cells, providing 10 μM compound at the maximum concentration point. The cells are incubated for 3 days at 37° C. in 5% CO2.
ATPlite is added 25 μL to each well, shake for 2 minutes, and the cells are incubated at room temperature for 10 minutes, then luminescence is read on Safire reader. The measured luminescence correlates directly with cell number, such that the reading as a function of compound concentration is used to determine the IC50 value.

A value given as a limit tells only on which side of the number the result lay.

As usually defined, the IC50 is the concentration at which inhibition is half-maximal. Low readings indicate higher potency, high ones lower potency.

`COCCN(C)S(=O)(=O)Nc1cccc(C(=O)c2c[nH]c3ncc(-c4cnc(C5CC5)nc4)cc23)c1F` [P-0085, 5-(2-cyclopropylpyrimidin-5-yl)-3-[2-fluoro-3-[[2-methoxyethyl(methyl)sulfamoyl]amino]benzoyl]-1H-pyrrolo[2,3-b]pyridine] returned an IC50 of less than 1 µM.

For `COc1ncc(-c2cnc3[nH]cc(C(=O)c4cccc(NS(=O)(=O)N5CC(F)(F)C5)c4F)c3c2)cn1` [P-0088, 3,3-difluoro-N-[2-fluoro-3-[5-(2-methoxypyrimidin-5-yl)-1H-pyrrolo[2,3-b]pyridine-3-carbonyl]phenyl]azetidine-1-sulfonamide], the IC50 is less than 1 µM.

Turning to `CCN(C)S(=O)(=O)Nc1cccc(C(=O)c2c[nH]c3ncnc(N[C@@H](C)C4CC4)c23)c1F` [P-0089, 4-[[(1 S)-1-cyclopropylethyl]amino]-5-[3-[[ethyl(methyl)sulfamoyl]amino]-2-fluoro-benzoyl]-7H-pyrrolo[2,3-d]pyrimidine], the IC50 was less than 1 µM.

For `N#Cc1ccc(-c2cnc3[nH]cc(C(=O)c4cccc(NS(=O)(=O)N5CCCC5)c4F)c3c2)cc1` [P-0090, N-[3-[5-(4-cyanophenyl)-1H-pyrrolo[2,3-b]pyridine-3-carbonyl]-2-fluoro-phenyl]pyrrolidine-1-sulfonamide], the IC50 is less than 1 µM.

Turning to `Cc1ncc(-c2cnc3[nH]cc(C(=O)c4cccc(NS(=O)(=O)N5CCCC5)c4F)c3c2)cn1` [P-0092, N-[2-fluoro-3-[5-(2-methylpyrimidin-5-yl)-1H-pyrrolo[2,3-b]pyridine-3-carbonyl]phenyl]pyrrolidine-1-sulfonamide], the IC50 was less than 1 µM.

In the case of `N#Cc1cncc(-c2cnc3[nH]cc(C(=O)c4cccc(NS(=O)(=O)N5CCCC5)c4F)c3c2)c1` [P-0093, N-[3-[5-(5-cyano-3-pyridyl)-1H-pyrrolo[2,3-b]pyridine-3-carbonyl]-2-fluoro-phenyl]pyrrolidine-1-sulfonamide], the IC50 was less than 1 µM.

Compound `N#Cc1ccc(-c2cnc3[nH]cc(C(=O)c4cccc(NS(=O)(=O)N5CCCC5)c4F)c3c2)cn1` [P-0094, N-[3-[5-(6-cyano-3-pyridyl)-1H-pyrrolo[2,3-b]pyridine-3-carbonyl]-2-fluoro-phenyl]pyrrolidine-1-sulfonamide] came in with an IC50 of less than 1 µM.

Take `O=C(c1cccc(NS(=O)(=O)N2CCCC2)c1F)c1c[nH]c2ncc(-c3ccc(C(F)(F)F)nc3)cc12` [P-0095, N-[2-fluoro-3-[5-[6-(trifluoromethyl)-3-pyridyl]-1H-pyrrolo[2,3-b]pyridine-3-carbonyl]phenyl]pyrrolidine-1-sulfonamide]: the IC50 was less than 1 µM.

The compound `Cc1ncc(-c2cnc3[nH]cc(C(=O)c4cccc(NS(=O)(=O)N(C)C)c4F)c3c2)cn1` [P-0097, 3-[3-(dimethylsulfamoylamino)-2-fluoro-benzoyl]-5-(2-methylpyrimidin-5-yl)-1H-pyrrolo[2,3-b]pyridine] returned an IC50 of less than 1 µM.

`CN(C)S(=O)(=O)Nc1cccc(C(=O)c2c[nH]c3ncc(-c4cncc(C#N)c4)cc23)c1F` [P-0098, 5-(5-cyano-3-pyridyl)-3-[3-(dimethylsulfamoylamino)-2-fluoro-benzoyl]-1H-pyrrolo[2,3-b]pyridine] registered an IC50 of less than 1 µM.

In the case of `CN(C)S(=O)(=O)Nc1cccc(C(=O)c2c[nH]c3ncc(-c4ccc(C#N)nc4)cc23)c1F` [P-0099, 5-(6-cyano-3-pyridyl)-3-[3-(dimethylsulfamoylamino)-2-fluoro-benzoyl]-1H-pyrrolo[2,3-b]pyridine], the IC50 was less than 1 µM.

Regarding `CCN(C)S(=O)(=O)Nc1cccc(C(=O)c2c[nH]c3ncc(-c4cnc(C#N)nc4)cc23)c1F` [P-0100, 5-(2-cyanopyrimidin-5-yl)-3-[3-[[ethyl(methyl)sulfamoyl]amino]-2-fluoro-benzoyl]-1H-pyrrolo[2,3-b]pyridine], the IC50 was less than 1 µM.

With `CCN(C)S(=O)(=O)Nc1cccc(C(=O)c2c[nH]c3ncc(-c4ccc(C#N)nc4)cc23)c1F` [P-0102, 5-(6-cyano-3-pyridyl)-3-[3-[[ethyl(methyl)sulfamoyl]amino]-2-fluoro-benzoyl]-1H-pyrrolo[2,3-b]pyridine], the IC50 was less than 1 µM.

With `CCN(C)S(=O)(=O)Nc1cccc(C(=O)c2c[nH]c3ncc(-c4ccc(C(C)(C)O)cc4)cc23)c1F` [P-0104, 3-[3-[[ethyl(methyl)sulfamoyl]amino]-2-fluoro-benzoyl]-5-[4-(1-hydroxy-1-methyl-ethyl)phenyl]-1H-pyrrolo[2,3-b]pyridine], the IC50 is less than 1 µM.

With `CN(C)c1ncc(-c2cnc3[nH]cc(C(=O)c4cccc(NS(=O)(=O)N(C)C)c4F)c3c2)cn1` [P-0106, 5-[2-(dimethylamino)pyrimidin-5-yl]-3-[3-(dimethylsulfamoylamino)-2-fluoro-benzoyl]-1H-pyrrolo[2,3-b]pyridine], the IC50 is less than 1 µM.

In turn, `CN(C)S(=O)(=O)Nc1cccc(C(=O)c2c[nH]c3ncc(-c4cnc(N5CCCC5)nc4)cc23)c1F` [P-0107, 3-[3-(dimethylsulfamoylamino)-2-fluoro-benzoyl]-5-(2-pyrrolidin-1-ylpyrimidin-5-yl)-1H-pyrrolo[2,3-b]pyridine] displayed an IC50 of less than 1 µM.

`O=C(c1cccc(NS(=O)(=O)N2CCCC2)c1F)c1c[nH]c2ncc(-c3cnc(N4CCCC4)nc3)cc12` [P-0109, N-[2-fluoro-3-[5-(2-pyrrolidin-1-ylpyrimidin-5-yl)-1H-pyrrolo[2,3-b]pyridine-3-carbonyl]phenyl]pyrrolidine-1-sulfonamide] gave an IC50 of less than 1 µM.

Compound `CN(C)S(=O)(=O)Nc1cccc(C(=O)c2c[nH]c3ncc(I)cc23)c1F` [P-0110, 3-[3-(dimethylsulfamoylamino)-2-fluoro-benzoyl]-5-iodo-1H-pyrrolo[2,3-b]pyridine] displayed an IC50 of less than 1 µM.

Compound `CCCN(C)S(=O)(=O)Nc1cccc(C(=O)c2c[nH]c3ncc(-c4cnc(C)nc4)cc23)c1F` [P-0111, 3-[2-fluoro-3-[[methyl(propyl)sulfamoyl]amino]benzoyl]-5-(2-methylpyrimidin-5-yl)-1H-pyrrolo[2,3-b]pyridine] yielded an IC50 of less than 1 µM.

On to `Cc1ncc(-c2cnc3[nH]cc(C(=O)c4cccc(NS(=O)(=O)N(C)CC5CC5)c4F)c3c2)cn1` [P-0112, 3-[3-[[cyclopropylmethyl(methyl)sulfamoyl]amino]-2-fluoro-benzoyl]-5-(2-methylpyrimidin-5-yl)-1H-pyrrolo[2,3-b]pyridine], for which the IC50 is less than 1 µM.

Compound `CN(C)S(=O)(=O)Nc1cccc(C(=O)c2c[nH]c3ncc(-c4ccc(C5CC5)nc4)cc23)c1F` [P-0113, 5-(6-cyclopropyl-3-pyridyl)-3-[3-(dimethylsulfamoylamino)-2-fluoro-benzoyl]-1H-pyrrolo[2,3-b]pyridine] registered an IC50 of less than 1 µM.

`CCCN(C)S(=O)(=O)Nc1cccc(C(=O)c2c[nH]c3ncc(-c4ccc(C5CC5)nc4)cc23)c1F` [P-0114, 5-(6-cyclopropyl-3-pyridyl)-3-[2-fluoro-3-[[methyl(propyl)sulfamoyl]amino]benzoyl]-1H-pyrrolo[2,3-b]pyridine] had a concentration for half-maximal inhibition (IC50) of less than 1 µM.

In turn, `CN(CC1CC1)S(=O)(=O)Nc1cccc(C(=O)c2c[nH]c3ncc(-c4ccc(C5CC5)nc4)cc23)c1F` [P-0115, 3-[3-[[cyclopropylmethyl(methyl)sulfamoyl]amino]-2-fluoro-benzoyl]-5-(6-cyclopropyl-3-pyridyl)-1H-pyrrolo[2,3-b]pyridine] yielded an IC50 of less than 1 µM.

Take `CCCN(C)S(=O)(=O)Nc1ccc(F)c(C(=O)c2c[nH]c3ncc(-c4cnc(OC)nc4)cc23)c1F` [P-0116, 3-[2,6-difluoro-3-[[methyl(propyl)sulfamoyl]amino]benzoyl]-5-(2-methoxypyrimidin-5-yl)-1H-pyrrolo[2,3-b]pyridine]: the IC50 was less than 1 µM.

For the compound `CCCNS(=O)(=O)Nc1cccc(C(=O)c2c[nH]c3ncc(I)cc23)c1F` [P-0117, [2-fluoro-3-(propylsulfamoylamino)phenyl]-(5-iodo-1H-pyrrolo[2,3-b]pyridin-3-yl)methanone], the IC50 is greater than 1 µM.

With `CCC(C)S(=O)(=O)Nc1cccc(C(=O)c2c[nH]c3ncc(-c4cnc(OC)nc4)cc23)c1F` (stereo not drawn) [P-0224, N-[2-fluoro-3-[5-(2-methoxypyrimidin-5-yl)-1H-pyrrolo[2,3-b]pyridine-3-carbonyl]phenyl]butane-2-sulfonamide], the concentration for half-maximal inhibition (IC50) is less than 1 µM.

Consider `CCC(C)S(=O)(=O)Nc1cccc(C(=O)c2c[nH]c3ncc(-c4cnc(N5CCCC5)nc4)cc23)c1F` (stereo not drawn) [P-0225, N-[2-fluoro-3-[5-(2-pyrrolidin-1-ylpyrimidin-5-yl)-1H-pyrrolo[2,3-b]pyridine-3-carbonyl]phenyl]butane-2-sulfonamide], for which the IC50 is less than 1 µM.

The compound `CCC(C)S(=O)(=O)Nc1cccc(C(=O)c2c[nH]c3ncc(-c4cnc(NC5CC5)nc4)cc23)c1F` (stereo not drawn) [P-0226, N-[3-[5-[2-(cyclopropylamino)pyrimidin-5-yl]-1H-pyrrolo[2,3-b]pyridine-3-carbonyl]-2-fluoro-phenyl]butane-2-sulfonamide] displayed an IC50 of less than 1 µM.

Consider `CCC(C)S(=O)(=O)Nc1cccc(C(=O)c2c[nH]c3ncc(-c4ccc(C5(C#N)CC5)cc4)cc23)c1F` (stereo not drawn) [P-0227, N-[3-[5-[4-(1-cyanocyclopropyl)phenyl]-1H-pyrrolo[2,3-b]pyridine-3-carbonyl]-2-fluoro-phenyl]butane-2-sulfonamide], for which the IC50 is less than 1 µM.

The compound `CCC(C)S(=O)(=O)Nc1cccc(C(=O)c2c[nH]c3ncc(-c4cnc(C5CC5)nc4)cc23)c1F` (stereo not drawn) [P-0228, N-[3-[5-(2-cyclopropylpyrimidin-5-yl)-1H-pyrrolo[2,3-b]pyridine-3-carbonyl]-2-fluoro-phenyl]butane-2-sulfonamide] had an IC50 of less than 1 µM.

The record behind these values is patent publication US11337976B2 (Plexxikon Inc., priority 2011, dated 2022).
